Measurements from ChEMBL document CHEMBL1201862, “PubChem BioAssay data set” (2004).
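Protocol summary: plate cells (96-well), add compound at 5 concentrations, incubate 48 h, interpolate endpoints linearly. GI50 marks 50% less growth.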 The source made the active and inactive calls. Cut-off read from the data, not from the text of the source: active = GI50 up to about 1.1 µM and inactive = higher.

What was measured:
Assay in all cases: NCI anticancer screen, dose series, 48 h
SN12C = system: SN12C
K562 = system: K562
A498 = system: A498
OVCAR-4 = system: OVCAR-4
SW-620 = system: SW-620
IGROV-1 = system: IGROV-1
LOX IMVI = system: LOX IMVI
Hs-578T = system: Hs-578T
CCRF-CEM = system: CCRF-CEM
TK-10 = system: TK-10
SF-539 = system: SF-539
OVCAR-8 = system: OVCAR-8
MCF7 = system: MCF7
NCI-H23 = system: NCI-H23
HCT-116 = system: HCT-116
NCI-H460 = system: NCI-H460
DU-145 = system: DU-145
RXF 393 = system: RXF 393
HT-29 = system: HT-29
SF-268 = system: SF-268
SK-MEL-28 = system: SK-MEL-28
MOLT-4 = system: MOLT-4
ACHN = system: ACHN
MDA-MB-435 = system: MDA-MB-435
SF-295 = system: SF-295
NCI-H522 = system: NCI-H522
UO-31 = system: UO-31
SK-OV-3 = system: SK-OV-3
UACC-257 = system: UACC-257
HCC 2998 = system: HCC 2998
OVCAR-3 = system: OVCAR-3
RPMI-8226 = system: RPMI-8226
SK-MEL-2 = system: SK-MEL-2
HL-60 = system: HL-60
KM12 = system: KM12
OVCAR-5 = system: OVCAR-5
MDA-MB-231 = system: MDA-MB-231
SNB-75 = system: SNB-75
A549 = system: A549
UACC-62 = system: UACC-62
SR = system: SR
U-251 = system: U-251
HCT-15 = system: HCT-15
HOP-62 = system: HOP-62
BT-549 = system: BT-549
HOP-92 = system: HOP-92
COLO 205 = system: COLO 205
CAKI-1 = system: CAKI-1
T47D = system: T47D
786-0 = system: 786-0
MDA-N = system: MDA-N
NCI-H226 = system: NCI-H226
Malme-3M = system: Malme-3M
PC-3 = system: PC-3
SNB-19 = system: SNB-19
SK-MEL-5 = system: SK-MEL-5
NCI/ADR-RES = system: NCI/ADR-RES
M14 = system: M14
EKVX = system: EKVX

CC(=O)OC1COC(n2c(-c3ccc(Cl)cc3)cc(-c3ccccc3)c(C#N)c2=S)C(OC(C)=O)C1OC(C)=O (configuration not stated) was tested, and the GI50 (SN12C) was 9.25 µM (inactive), the GI50 (K562) was 12.2 µM (inactive) and the GI50 (A498) was 17.4 µM (inactive). For the same compound, the GI50 (OVCAR-4) was 2.92 µM (inactive), the GI50 (SW-620) was 41.1 µM (inactive) and the GI50 (IGROV-1) was 18.2 µM (inactive). The GI50 (LOX IMVI) was 3.58 µM (inactive), the GI50 (Hs-578T) was 0.552 µM (active) and the GI50 (CCRF-CEM) was 31.8 µM (inactive). The GI50 (TK-10) was 31.6 µM (inactive), the GI50 (SF-539) was 4.42 µM (inactive) and the GI50 (OVCAR-8) was 5.06 µM (inactive). For the same compound, the GI50 (MCF7) was 8.43 µM (inactive), the GI50 (NCI-H23) was 12.2 µM (inactive) and the GI50 (HCT-116) was 5.52 µM (inactive). For the same compound, the GI50 (NCI-H460) was 19.1 µM (inactive), the GI50 (DU-145) was 13.9 µM (inactive) and the GI50 (RXF 393) was 12.9 µM (inactive). For the same compound, the GI50 (HT-29) was 26.2 µM (inactive), the GI50 (SF-268) was 9.44 µM (inactive) and the GI50 (SK-MEL-28) was > 28.9 µM (inactive). The GI50 (MOLT-4) was 50.1 µM (inactive), the GI50 (ACHN) was 17.5 µM (inactive) and the GI50 (MDA-MB-435) was 7.19 µM (inactive). The GI50 (SF-295) was 14.7 µM (inactive), the GI50 (NCI-H522) was 40.5 µM (inactive) and the GI50 (UO-31) was 17.6 µM (inactive). For the same compound, the GI50 (SK-OV-3) was 28.2 µM (inactive), the GI50 (UACC-257) was 41.6 µM (inactive) and the GI50 (HCC 2998) was 31.6 µM (inactive). The GI50 (OVCAR-3) was 6.38 µM (inactive), the GI50 (RPMI-8226) was 29.9 µM (inactive) and the GI50 (SK-MEL-2) was 12 µM (inactive). For the same compound, the GI50 (HL-60) was 37.7 µM (inactive), the GI50 (KM12) was 14.7 µM (inactive) and the GI50 (OVCAR-5) was 32.7 µM (inactive). The GI50 (MDA-MB-231) was 2.88 µM (inactive), the GI50 (SNB-75) was 15.7 µM (inactive) and the GI50 (A549) was 13.4 µM (inactive). The GI50 (UACC-62) was 19.1 µM (inactive), the GI50 (SR) was 29.2 µM (inactive) and the GI50 (U-251) was 3.78 µM (inactive). The GI50 (HCT-15) was 23.4 µM, the GI50 (HOP-62) was 9.23 µM (inactive) and the GI50 (BT-549) was 2.06 µM (inactive). For the same compound, the GI50 (HOP-92) was 12.9 µM (inactive), the GI50 (COLO 205) was 18.3 µM (inactive) and the GI50 (CAKI-1) was 19.7 µM (inactive). For the same compound, the GI50 (T47D) was 14.1 µM (inactive), the GI50 (786-0) was 12.5 µM (inactive) and the GI50 (MDA-N) was 22.1 µM (inactive). The GI50 (NCI-H226) was 16.3 µM (inactive), the GI50 (Malme-3M) was 49.9 µM (inactive) and the GI50 (PC-3) was 14.5 µM (inactive). For the same compound, the GI50 (SNB-19) was 31 µM (inactive), the GI50 (SK-MEL-5) was 8.51 µM (inactive) and the GI50 (NCI/ADR-RES) was 14.1 µM (inactive). The GI50 (M14) was 17.2 µM (inactive) and the GI50 (EKVX) was 58.5 µM (inactive).

COc1oc(C(=O)NC2CCCCC2)c(-c2ccc(Cl)cc2)c1S(=O)(=O)c1ccccc1 was tested, and the GI50 (SN12C) was 20.1 µM (inactive), the GI50 (K562) was 12.3 µM (inactive) and the GI50 (A498) was 2.15 µM (inactive). For the same compound, the GI50 (OVCAR-4) was 1.7 µM (inactive), the GI50 (SW-620) was 38.2 µM (inactive) and the GI50 (IGROV-1) was 1.82 µM (inactive). The GI50 (LOX IMVI) was 2.78 µM (inactive), the GI50 (Hs-578T) was 16.2 µM (inactive) and the GI50 (CCRF-CEM) was 2.2 µM (inactive). The GI50 (TK-10) was > 53.1 µM (inactive), the GI50 (SF-539) was 6.58 µM (inactive) and the GI50 (OVCAR-8) was 6.4 µM (inactive). For the same compound, the GI50 (MCF7) was 36.1 µM (inactive), the GI50 (HCT-116) was 33.3 µM (inactive) and the GI50 (NCI-H460) was 10.5 µM (inactive). The GI50 (DU-145) was 18.3 µM (inactive), the GI50 (RXF 393) was 3.02 µM (inactive) and the GI50 (HT-29) was 2.26 µM (inactive). For the same compound, the GI50 (SF-268) was 3.46 µM (inactive), the GI50 (SK-MEL-28) was 49.3 µM (inactive) and the GI50 (MOLT-4) was 6.79 µM (inactive). The GI50 (ACHN) was 31 µM (inactive), the GI50 (MDA-MB-435) was 9.86 µM (inactive) and the GI50 (SF-295) was 23.4 µM (inactive). The GI50 (NCI-H522) was 1.34 µM (inactive), the GI50 (UO-31) was 1.82 µM (inactive) and the GI50 (SK-OV-3) was 25.6 µM (inactive). For the same compound, the GI50 (UACC-257) was 11.8 µM (inactive), the GI50 (HCC 2998) was 19 µM (inactive) and the GI50 (OVCAR-3) was 1.89 µM (inactive). For the same compound, the GI50 (RPMI-8226) was 2.15 µM (inactive), the GI50 (SK-MEL-2) was 13.4 µM (inactive) and the GI50 (HL-60) was 2.4 µM (inactive). For the same compound, the GI50 (KM12) was 5.55 µM (inactive), the GI50 (OVCAR-5) was 23.4 µM (inactive) and the GI50 (MDA-MB-231) was 9.51 µM (inactive). For the same compound, the GI50 (SNB-75) was 20.8 µM (inactive), the GI50 (A549) was 23.7 µM (inactive) and the GI50 (UACC-62) was 17.1 µM (inactive). The GI50 (SR) was 5.51 µM (inactive), the GI50 (U-251) was 2.64 µM (inactive) and the GI50 (HCT-15) was 44.9 µM. For the same compound, the GI50 (HOP-62) was 6.27 µM (inactive), the GI50 (BT-549) was 5.55 µM (inactive) and the GI50 (HOP-92) was 1.5 µM (inactive). For the same compound, the GI50 (COLO 205) was 15.5 µM (inactive), the GI50 (CAKI-1) was 3.37 µM (inactive) and the GI50 (T47D) was 37.7 µM (inactive). The GI50 (786-0) was 1.99 µM (inactive), the GI50 (MDA-N) was 64 µM (inactive) and the GI50 (NCI-H226) was 52.2 µM (inactive). The GI50 (Malme-3M) was 11.7 µM (inactive), the GI50 (PC-3) was 10.7 µM (inactive) and the GI50 (SNB-19) was 99.3 µM (inactive). For the same compound, the GI50 (SK-MEL-5) was 28.1 µM (inactive), the GI50 (NCI/ADR-RES) was 2.76 µM (inactive) and the GI50 (M14) was 26.9 µM (inactive). The GI50 (EKVX) was 9.98 µM (inactive).
